# Measurements taken from EP0855181A2 (priority 1997, dated 1998).
# Like-named read-outs stand apart in the source and are kept apart here.
# Columns and labels:
# [1] = tested on: Human neutrophils (PMN)
# Experimental: Human neutrophils (PMN) are isolated from EDTA-anticoagulated blood by Ficoll-density-centrifugation and by dextran sedimenation as described by Böyum, A. in Scand. J. Clin. Lab. Invest. 21(Suppl. 97):77-89, 1968.Variable concentrations of glycine (4.0 mM, 0.4 mM and 0.04 mM in a volume of 50 µl) and as a control 50 µl PBS are incubated with human neutrophils (2x10^7 cells/ml in a volume of 500 µl in Ca/Mg (1/0.5mM) and 0.25mM luminol) for 20 min at 37°C and stimulation is subsequently carried out with fMLP (N-formyl-methionyl-leucyl-phenylalanine, 10^-5M), NaF (20mM) or PMA (10 ng), each in a volume of 50µl, for 30 min at 37°C. fMLP is a receptor-mediated stimulus, NaF is a G-protein-mediated activator of cells and PMA activates the protein kinase C. As a control neutrophils are incubated with the variable glycine concentrations without subsequent stimulation. Respiratory burst is measured by chemiluminescence response of oxygen radicals essentially as described in Immunology, 1992, 76, 86-94.
# [2] = tested on: Neutrophils (PMNs)
# Experimental: Neutrophils (PMNs, isolated as described in example 2, in a concentration of 2x10^7/ml in a volume of 500µl + 50 µl 1mM Ca/0.5mM Mg) are preincubated with glycine (0.0004mM, 0.004mM, 0.04mM, 0.4mM and 4mM in a volume of 50µl) for 20 or 30 minutes at 37°C. Subsequently they are treated with cytochalasin (50 µl, 10^-5M) and stimulated with 50 µl fMLP (10^-5M), NaF (20mM), or primed with 50µl GM-CSF (10ng) and subsequently stimulated with 50µl NaF (20mM), fMLP (10^-5M) or Ca-ionophore (5µM) and incubated for a further 20 minutes at 37°C. Leukotrienes are measured by HPLC as described in Immunology 67:401-407.
# [3] = tested on: Peripheral mononuclear cells
# Experimental: Peripheral mononuclear cells (as in example 2 but in a concentration of 10^6/ml) are pre-incubated with SEB at variable concentrations (50 µl of 1 ng/ml, 0,1 ng/ml and 0.01 ng/ml) in the presence of variable concentrations of glycine (as above) for 24h, 48h and 72h or pre-incubated with glycine and subsequently stimulated with different concentrations of SEB.
# [4] = tested on: Peripheral mononuclear cells; settings: glycine 0.00004-40 mM, 14 days, interleukin-4 and anti-CD40
# Experimental: To this end, peripheral mononuclear cells (as in example 1) were incubated with variable concentrations of glycine (0.00004mM, 0.0004mM, 0.004mM, 0.04mM, 0.4mM, 4mM, 40mM). The incubation time is carried out over 14 days. The cells were stimulated in the presence of glycine with interleukin-4 and anti-CD40 as B-cell activator. In the supernatant, the IgM, IgA, IgG and IgE synthesis was analysed.
# [5] = tested on: superantigen primed neutrophils
# [6] = tested on: Peripheral mononuclear cells (PMNs)
# [7] = tested on: Peripheral mononuclear cells (PMNs); remark: listed apart in the source
# [8] = tested on: lymphocytes, monocytes, basophils (LMBs)
# [9] = tested on: lymphocytes, monocytes, basophils (LMBs); remark: listed apart in the source
# [10] = tested on: LMBs
# [11] = cells primed with GM-CSF, variable glycine, then NaF
# [12] = glycine pre-incubation over 30 minutes
smiles,measurement,setting,value
NCC(=O)O [glycine],respiratory burst,"[1]; glycine 0.04 mM, then fMLP",further modulation
same,oxygen metabolites (respiratory burst),"[1]; glycine 4.0, 0.4, 0.04 mM, 20 min at 37°C, no subsequent stimulation",no effect
same,respiratory burst,"[1]; glycine pre-incubation, then NaF (20mM)",dose-dependent suppression and also an increase
same,respiratory burst,"[1]; glycine pre-incubation, then PMA (10 ng)",No changes
same,LTB4 generation,[2]; [11],inhibition
same,LTC4 generation,[2]; [11],inhibition
same,LTB4 generation,"[2]; cells primed with GM-CSF, variable glycine, then calcium ionophore",marginal increase
same,LTB4 release,"[2]; cells primed with GM-CSF, variable glycine, then fMLP",fluctuating
same,fMLP-induced LTE4 generation,[2]; glycine 4.0 mM,suppressing influence
same,LTB4 release,[2]; [12],increase
same,LTC4 release,[2]; [12],suppression
same,omega-LTB4 release,[2]; [12],increase
same,leukotriene-E4,[2]; neutrophils activated with calcium ionophore in the presence of glycine,very strong suppression
same,LTB4 generation,"[2]; neutrophils in the presence of glycine, fMLP",suppression
same,interferon-γ release,"[3]; 48 hours glycine pre-incubation, subsequent RSV stimulation",intense increase
same,interferon-γ release,"[3]; 48 hours glycine pre-incubation, subsequent SEB stimulation (Fig. 2), refers to intense increase",similarly indicated
same,interferon-γ release,[3]; RSV used instead of SEB,dose-dependent increase
same,interferon-γ release,"[3]; SEB with glycine, incubation of up to 48 hours",Marginal effects
same,interferon-γ release,"[3]; glycine pre-incubation over 72 hours, SEB as activator",increase
same,release of interferon-γ,"[3]; glycine pre-incubation, subsequent SEB stimulation",extremely potent release
same,interferon-γ concentration,[3]; very long glycine pre-incubation and subsequent stimulation,reduction
same,induced IgE synthesis,[4],no affect
same,"other immunoglobulins (IgM, IgA, IgG synthesis)",[4],no changes
same,20-carboxy-LTB4,[5],drop
same,LTC4,[5],increase
same,cysteinyl leukotrienes,[5],increase
same,omega-LTB4 generation,[5],increase
same,release of 12-HETE,[5],increase
same,IL-8 release,[6],significant increase
same,interleukin-8 release,"[6]; cells pre-incubated with interferon-γ, then staphylococcus enterotoxin B",dose-dependent stimulation
same,interleukin-8 release,[6]; staphylococcus enterotoxin B stimulation,marginal increase
same,TNF release,"[7]; GM-CSF (10 ng) primed model, then SEB (10 ng)",suppression
same,TNF release,[7]; RSV as stimulus,modulation
same,TNF release,[7]; conditions of the interleukin-8 experiments,no significant changes
same,TNF,"[7]; glycine 0.0004-0.4 mM pre-incubation, then SEB (10 ng)",dose-dependent increase
same,SEB-induced TNF release,"[7]; glycine pre-incubation, then SEB",increase
same,TNF release,"[7]; glycine pre-incubation, then SEB, in dependence on stimulus",suppression
same,TNF release,"[7]; phospholipase C at variable concentrations as stimulus, 'also applies' refers to modulation",This also applies
same,interleukin-10,[8],increase
same,release of interleukin-10,[8]; glycine combined with staphylococcus enterotoxin B (Fig. 1),significant release
same,SEB-induced TNF-α release,[9],marked suppression
same,TNF-α,[9],increase
same,phospholipase C induced TNF-α release,[9],great suppression
same,suppression of the TNF-α release,[9],lower
same,staphylococcus enterotoxin B induced TNF-α release,"[9]; LMBs incubated with interferon-γ 24 hours, then SEB",great suppression
same,interleukin-12 release,"[10]; GM-CSF priming, glycine 2 hours, then SEB, eliminated with low glycine concentrations",marginal reduction
same,interleukin-12 release,"[10]; glycine incubation alone, low concentrations of glycine",stimulatory effect
